System: healthy male S.D. rats
Assay: Feces production in rats over the 10-day period (Example 3)
Format: in vivo, rat
Conditions: Sennosides 3.35 mg/kg
Method in brief: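 Male S.D. rats (n=6 per arm) received sennosides 3.35 mg/kg/day, STD05 or ARE at 8 or 24 mg/kg/day, single anthraquinones at 4 mg/kg/day, or CP at 8 mg/kg/day over 10 days, with untreated controls. On days 1, 5 and 10, rats in metabolic cages gave 24-h feces, which were weighed wet, counted and dried at 100° C. to derive water content.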

[1] = Group I, Day 1, STD05 8 mg/kg, ARE 8 mg/kg, Aloe-emodin 4 mg/kg, Rhein 4 mg/kg
[2] = Group I, Day 5, STD05 8 mg/kg, ARE 8 mg/kg, Aloe-emodin 4 mg/kg, Rhein 4 mg/kg
[3] = Group I, Day 10, STD05 8 mg/kg, ARE 8 mg/kg, Aloe-emodin 4 mg/kg, Rhein 4 mg/kg
[4] = Group II, Day 1, STD05 24 mg/kg, ARE 24 mg/kg, Chrysophanol 4 mg/kg, Emodin 4 mg/kg
[5] = Group II, Day 5, STD05 24 mg/kg, ARE 24 mg/kg, Chrysophanol 4 mg/kg, Emodin 4 mg/kg
[6] = Group II, Day 10, STD05 24 mg/kg, ARE 24 mg/kg, Chrysophanol 4 mg/kg, Emodin 4 mg/kg

Sennosides was tested, and the Pellet count [1] was 101, the Water content [1] was 45.69% and the “Wet Weight” value [1] was 18.72 g. For the same substance, the Pellet count [2] was 119, the Water content [2] was 48.68% and the “Wet Weight” value [2] was 26.16 g. For the same substance, the Pellet count [3] was 146, the Water content [3] was 57.4% and the “Wet Weight” value [3] was 36.38 g. For the same substance, the Pellet count [4] was 134, the Water content [4] was 61.09% and the “Wet Weight” value [4] was 36.19 g. For the same substance, the Pellet count [5] was 118, the Water content [5] was 61.53% and the “Wet Weight” value [5] was 36.42 g. The Pellet count [6] was 132, the Water content [6] was 53.99% and the “Wet Weight” value [6] was 36.21 g.

Source: patent US8466202B2, “Anthracenedione compounds” (Sunten Phytotech Co., Ltd., priority 2006, dated 2013)
